Patent publication US11433053B2, “LSD1 inhibitor and preparation method and application thereof” (CSPC ZHONGQI PHARMACEUTICAL TECHNOLOGY (SHIJIAZHUANG) CO., …, priority 2017, dated 2022)

Experiments:
human LSD1 = human LSD1 (Homo sapiens (Human), UniProt O60341); test: Evaluation of enzyme activity: LSD1 fluorescence coupling enzyme assay (HRP/Amplex Red); assay type: biochemical; conditions: human LSD1, histone H3(1-21)K4me2 peptide 10 μM, 30 min pre-incubation
Protocol: The purpose of this test is to test the in vitro inhibitory activities of the compounds against LSD1. The enzyme used in this experiment was human LSD1, and the standard substrate was histone H3(1-21)K4me2 peptide (10 μM). HCI-2509 (SP2509) was used as reference compound, and the fluorescence coupling enzyme assay was employed. The production of FAD-dependent H2O2 as a result of demethylase activity of LSD1 was measured by coupling with HRP and Amplex Red. Compounds as well as control compound HCl-2509 were tested in 10-dose IC50 mode with a 3-fold serial dilution in duplicate starting at 10 μm. All compounds were pre-incubated 30 mins with enzyme before added substrate to start reaction. Fluorescence measurement: Ex/Em=535/590 by EnVision.
The test compound's inhibitory activities against LSD11 was classified as: + for IC50≤50 nM; ++ for IC50>50 nM and ≤100 nM; +++ for IC50>100 nM and ≤500 nM, and the results are shown in Table 1.

H1417 cells = test: Cell proliferation inhibitory activity on H1417 cells (CellTiter-Glo, 10 days); assay type: cell-based, human; conditions: for IC50: 10 days incubation; for Emax: NCI-H1417, H1417 cells, read-out: Maximum inhibition percentage (%)
Protocol: Experimental purposes: To test the proliferation inhibitory activities of the test compounds on H1417 cells.
Experimental materials: RPMI 1640 medium, fetal bovine serum, Promega CellTiter-Glo reagent. The H1417 cell line purchased from ATCC. Envision Multi-Label Analyzer (PerkinElmer).
Experimental method: H1417 cells were seeded in a black 384-well plate, 1000 cells per well in […] of cell suspension. The test compounds were diluted 3-fold with Epmotion to the 10th concentration i.e, the compounds were diluted from 10 mmol to […], and a double duplicate well experiment was set. 198 μL medium was added to the middle plate, according to the corresponding position, 2 μL gradient diluted compounds were added to the middle plate. The mixture was mixed evenly and transferred 20 μL per well to the cell plates. The cell plates were incubated in a carbon dioxide incubator for 10 days. 25 μL of Promega CellTiter-Glo reagent per well was added to the cell plate and the mixture was incubated for 10 minutes at room temperature to stabilize the luminescence signal. Readings were performed by PerkinElmer Envision multi-label analyzer.
Data analysis: The original data was converted to the inhibition rate by the equation (Max-Ratio)/(Max-Min)*100%, and the value of IC50 can be obtained by curve fitting with four parameters. (Model 205 in XLFIT5, iDBS)
The growth inhibitory activities of the test compounds on H1417 cells were classified as + for IC50≤100 nM; ++ for IC50>100 nM and ≤500 nM; +++ for IC50>500 nM and ≤1000 nM; the highest percentage inhibition of cell viability was classified as: […]; 90%>B≥70%; 70%>C≥50%.

[1] = Homo sapiens, NCI-H1417, 240 h, H1417 cells
[2] = Homo sapiens, highest percentage inhibition of cell viability

SMILES | IC50 (human LSD1) | IC50 (H1417 cells; [1]) | IC50 (H1417 cells; H1417 cells) | Emax (H1417 cells; [2]) | Maximum inhibition percentage (%) (H1417 cells; H1417 cells, highest percentage inhibition of cell viability)
CC(C)Oc1ccc(-c2nc(C3(CN[C@H]4CC4c4ccccc4)CCC3)no2)cc1 (stereo partly drawn) [Example 87] | ≤ 50 nM | 100 to 500 nM | – | 50 to 70% | –
FC(F)(F)Oc1ccc(-c2nc(C3(CN[C@H]4CC4c4ccccc4)CCC3)no2)cc1 (stereo partly drawn) [Example 88] | ≤ 50 nM | 100 to 500 nM | – | 50 to 70% | –
FC(F)Oc1ccc(-c2nc(C3(CN[C@H]4CC4c4ccccc4)CCC3)no2)cc1 (stereo partly drawn) [Example 89] | ≤ 50 nM | 100 to 500 nM | – | 50 to 70% | –
NC(=O)c1ccc(-c2nc(C3(CN[C@H]4CC4c4ccccc4)CCC3)no2)cc1 (stereo partly drawn) [Example 95] | ≤ 50 nM | ≤ 100 nM | – | 50 to 70% | –
CN(C)[C@H]1CC[C@@H](c2nc(C3(CN[C@@H]4C[C@H]4c4ccccc4)CC3)no2)CC1 [Example 116] | ≤ 50 nM | 100 to 500 nM | – | 70 to 90% | –
c1ccc(C2C[C@@H]2NCC2(c3noc(-c4ccc5scnc5c4)n3)CCC2)cc1 (stereo partly drawn) [Example 127] | ≤ 50 nM | 100 to 500 nM | – | 50 to 70% | –
COc1ccc(-c2nc(C3(CN[C@H]4CC4c4ccccc4)CCC3)no2)cn1 (stereo partly drawn) [Example 129] | ≤ 50 nM | 100 to 500 nM | – | 50 to 70% | –
FC(F)(F)c1ccc(-c2nc(C3(CN[C@H]4CC4c4ccccc4)CCC3)no2)cc1 (stereo partly drawn) [Example 132] | ≤ 50 nM | 100 to 500 nM | – | 50 to 70% | –
N[C@@H](CCc1nc(C2(CN[C@@H]3C[C@H]3c3ccccc3)CC2)no1)C(=O)O [Example 153] | 100 to 500 nM | 500 to 1000 nM | – | 90 to 100% | –
c1ccc([C@@H]2C[C@H]2NCC2(c3noc([C@H]4C[C@H]5CNC[C@H]5C4)n3)CC2)cc1 [Example 156] | 50 to 100 nM | 100 to 500 nM | – | 70 to 90% | –
c1ccc([C@@H]2C[C@H]2NCC2(c3noc([C@@H]4C[C@H]5CNC[C@H]5C4)n3)CC2)cc1 [Example 157] | 50 to 100 nM | 500 to 1000 nM | – | 70 to 90% | –
c1ccc([C@@H]2C[C@H]2NCC2(c3noc(C4CCC5(CC4)CNC5)n3)CC2)cc1 [Example 158] | ≤ 50 nM | 500 to 1000 nM | – | 90 to 100% | –
NC1CCN(c2nc(C3(CN[C@@H]4C[C@H]4c4ccccc4)CC3)no2)CC1 [Example 159] | 50 to 100 nM | 100 to 500 nM | – | 90 to 100% | –
c1ccc(C2C[C@@H]2NCC2(c3noc(C4CCc5nc[nH]c5C4)n3)CC2)cc1 (stereo partly drawn) [Example 161] | ≤ 50 nM | 100 to 500 nM | – | 70 to 90% | –
c1ccc(C2C[C@@H]2NCC2(c3noc(CC4CCNCC4)n3)CC2)cc1 (stereo partly drawn) [Example 163] | 100 to 500 nM | 100 to 500 nM | – | 70 to 90% | –
COC(=O)[C@H]1CC[C@H](c2nc(C3(CN[C@@H]4C[C@H]4c4ccccc4)CC3)no2)CC1 [Example 171] | ≤ 50 nM | 100 to 500 nM | – | 50 to 70% | –
CN(C)C(=O)c1ccc(-c2nc(C3(CN[C@H]4CC4c4ccccc4)CC3)no2)cc1 (stereo partly drawn) [Example 183] | ≤ 50 nM | 500 to 1000 nM | – | 90 to 100% | –
N#Cc1ccc(-c2nc(C3(CN[C@H]4CC4c4ccccc4)CCC3)no2)cc1 (stereo partly drawn) [Example 192] | ≤ 50 nM | 100 to 500 nM | – | 50 to 70% | –
N#Cc1ccc(-c2nc(C3(CN[C@H]4CC4c4ccccc4)CCC3)no2)c(F)c1 (stereo partly drawn) [Example 193] | ≤ 50 nM | 100 to 500 nM | – | 50 to 70% | –
O=C(O)c1ccc(CN2CCC3(CC2)CC(c2nc(C4(CN[C@H]5CC5c5ccccc5)CC4)no2)C3)cc1 (stereo partly drawn) [Example 206] | 100 to 500 nM | 500 to 1000 nM | – | 50 to 70% | –
O=C(C1CC1)N1CCC(c2nc(C3(CN[C@H]4CC4c4ccccc4)CC3)no2)CC1 (stereo partly drawn) [Example 208] | ≤ 50 nM | 100 to 500 nM | – | 70 to 90% | –
N[C@@H]1CCC[C@@H](c2nc(C3(CN[C@@H]4C[C@H]4c4ccccc4)CC3)no2)C1 [Example 214] | 50 to 100 nM | 100 to 500 nM | – | 70 to 90% | –
C[C@@H]1CN(CC2(CN[C@H]3CC3c3ccccc3)CC2)C[C@H](C)N1 (stereo partly drawn) [Example 216] | 100 to 500 nM | ≤ 100 nM | – | 90 to 100% | –
C[C@@H]1CN(CC2(CN[C@H]3CC3c3ccccc3)CC2)C[C@H](C)O1 (stereo partly drawn) [Example 217] | 100 to 500 nM | 500 to 1000 nM | – | 50 to 70% | –
c1ccc(C2C[C@@H]2NCC2(c3noc(C4CC5(CCNCC5)C4)n3)CC2)cc1 (stereo partly drawn) [Example 219] | ≤ 50 nM | 500 to 1000 nM | – | 90 to 100% | –

Further lines, with some results ahead:

IC50 (human LSD1) | IC50 (H1417 cells; [1]) | IC50 (H1417 cells; H1417 cells) | SMILES | Emax (H1417 cells; [2]) | Maximum inhibition percentage (%) (H1417 cells; H1417 cells, highest percentage inhibition of cell viability)
≤ 50 nM | 100 to 500 nM | – | N#Cc1ccc2c(c1)CN(CC1(CN[C@H]3CC3c3ccccc3)CC1)C2 (stereo partly drawn) [Example 100] | 50 to 70% | –
≤ 50 nM | 100 to 500 nM | – | O=C(N[C@H]1CC[C@@H](c2nc(C3(CN[C@@H]4C[C@H]4c4ccccc4)CC3)no2)CC1)C1CC1 [Example 117] | 70 to 90% | –
≤ 50 nM | 500 to 1000 nM | – | N[C@H]1CC[C@@H](c2nc(C3(CN[C@@H]4C[C@H]4c4ccccc4)CC3)no2)C1 [Example 147] | 90 to 100% | –
50 to 100 nM | – | 500 to 1000 nM | O=C(O)[C@H]1C[C@H](c2nc(C3(CN[C@@H]4C[C@H]4c4ccccc4)CC3)no2)C1 [Example 149] | – | C (70%>C≥50%)
≤ 50 nM | 500 to 1000 nM | – | c1ccc(C2C[C@@H]2NCC2(c3noc(-c4cn5c(n4)CCCC5)n3)CC2)cc1 (stereo partly drawn) [Example 162] | 90 to 100% | –
100 to 500 nM | 500 to 1000 nM | – | O=C(O)[C@H]1CC[C@@H](c2nc(C3(CN[C@H]4CC4c4ccccc4)CC3)no2)C1 (stereo partly drawn) [Example 174] | 50 to 70% | –
100 to 500 nM | 500 to 1000 nM | – | O=C(O)[C@@H]1CC[C@H](c2nc(C3(CN[C@H]4CC4c4ccccc4)CC3)no2)C1 (stereo partly drawn) [Example 178] | 70 to 90% | –
≤ 50 nM | 500 to 1000 nM | – | NC(=O)c1ccc(-c2nc(C3(CN[C@H]4CC4c4ccccc4)CC3)no2)cc1 (stereo partly drawn) [Example 182] | 90 to 100% | –
≤ 50 nM | 100 to 500 nM | – | O=C(NC1CC1)c1ccc(-c2nc(C3(CN[C@H]4CC4c4ccccc4)CC3)no2)cc1 (stereo partly drawn) [Example 184] | 90 to 100% | –
≤ 50 nM | 100 to 500 nM | – | NC1CCC(NCC2(CN[C@H]3CC3c3ccccc3)CC2)CC1 (stereo partly drawn) [Example 195] | 50 to 70% | –
≤ 50 nM | 100 to 500 nM | – | c1ccc(C2C[C@@H]2NCC2(CN[C@@H]3CC3c3ccccc3)CC2)cc1 (stereo partly drawn) [Example 198] | 50 to 70% | –
50 to 100 nM | 500 to 1000 nM | – | NC1(CN[C@H]2CC2c2ccccc2)CC1 (stereo partly drawn) [Example 199] | 70 to 90% | –
≤ 50 nM | 500 to 1000 nM | – | c1ccc(C2C[C@@H]2NCC2(CN3CC4CNCC4C3)CC2)cc1 (stereo partly drawn) [Example 207] | 50 to 70% | –
≤ 50 nM | 100 to 500 nM | – | C[C@@H]1CCCN1CC1(CN[C@H]2CC2c2ccccc2)CC1 (stereo partly drawn) [Example 213] | 50 to 70% | –
50 to 100 nM | 100 to 500 nM | – | N[C@@H]1CCC[C@H](c2nc(C3(CN[C@@H]4C[C@H]4c4ccccc4)CC3)no2)C1 [Example 220] | 70 to 90% | –
≤ 50 nM | 100 to 500 nM | – | N[C@H]1CC[C@H](Cc2nc(C3(CN[C@H]4CC4c4ccccc4)CC3)no2)CC1 (stereo partly drawn) [Example 225] | 90 to 100% | –
